These are literature values, as cited in patent publication JP2021073187A, “即効型インスリン組成物” (Eli Lilly and Co, priority 2014, dated 2021).

As to “インスリンリスプロ: drug substance of HUMALOG, CAS 133107-64-9; A chain SEQ ID 1, B chain SEQ ID 3 [28B−L−リジン−29B−L−プロリン ヒトインスリン]”, the “Potency relative to human insulin” value (on a molar basis) is reported as “等しい効力”. Besides, the “Effect after subcutaneous injection relative to injected soluble human insulin” value (subcutaneous injection) was “迅速で短い持続時間”.
